Results published in ChEMBL document CHEMBL6127029, “Glutathione-dependent degradation of SMARCA2/4 for targeted lung cancer therapy with improved selectivity” (Eur J Med Chem, 2024).
Active and inactive are the calls of the source. No cut-off for these calls is given here.

Tests used:
[1] = system: A549; test: Reduction in intracellular GSH level in human A549 cells by measuring decrease in fluorescence signal at 10 uM incubated for 10 mins in presence of GSH scavenger NEM by fluorescence microscopic analysis; format: functional, cell-based
[2] = target: T1, von Hippel-Lindau disease tumor suppressor/SWI/SNF-related matrix-associated actin-dependent regulator of chromatin subfamily A member 2 (Homo sapiens) (UniProt P51531+P40337); test: PROTAC activity at VHL/SMARCA2 in human A549 cells assessed as induction of SMARCA2 degradation at 1 uM incubated for 24 hrs by Western blotting analysis; format: cell-based
[3] = target: T1, von Hippel-Lindau disease tumor suppressor/SWI/SNF-related matrix-associated actin-dependent regulator of chromatin subfamily A member 2 (Homo sapiens); test: PROTAC activity at VHL/SMARCA2 in human HEK-293T cells assessed as induction of SMARCA2 degradation at 1 uM incubated for 24 hrs by Western blotting analysis relative to control; format: cell-based
[4] = target: T2, von Hippel-Lindau disease tumor suppressor/SWI/SNF-related matrix-associated actin-dependent regulator of chromatin subfamily A member 4 (Homo sapiens) (UniProt P51532+P40337); test: PROTAC activity at VHL/SMARCA4 in human HEK-293T cells assessed as induction of SMARCA4 degradation at 1 uM incubated for 24 hrs by Western blotting analysis relative to control; format: cell-based
[5] = target: T1, von Hippel-Lindau disease tumor suppressor/SWI/SNF-related matrix-associated actin-dependent regulator of chromatin subfamily A member 2 (Homo sapiens); test: PROTAC activity at VHL/SMARCA2 in human A549 cells assessed as induction of SMARCA2 degradation at 1 uM by Western blotting analysis; format: cell-based; conditions: TDE = time-dependent effect
[6] = target: T1, von Hippel-Lindau disease tumor suppressor/SWI/SNF-related matrix-associated actin-dependent regulator of chromatin subfamily A member 2 (Homo sapiens); test: PROTAC activity at VHL/SMARCA2 in human NCI-H1299 cells assessed as induction of SMARCA2 degradation at 1 uM by Western blotting analysis; format: cell-based; conditions: TDE = time-dependent effect
[7] = target: T1, von Hippel-Lindau disease tumor suppressor/SWI/SNF-related matrix-associated actin-dependent regulator of chromatin subfamily A member 2 (Homo sapiens); test: PROTAC activity at VHL/SMARCA2 in human A549 cells assessed as induction of SMARCA2 degradation at 1 uM incubated for 8 hrs in presence of GSH scavenger NEM by Western blotting analysis; format: cell-based
[8] = target: T1, von Hippel-Lindau disease tumor suppressor/SWI/SNF-related matrix-associated actin-dependent regulator of chromatin subfamily A member 2 (Homo sapiens); test: PROTAC activity at VHL/SMARCA2 in human A549 cells assessed as induction of SMARCA2 degradation at 1 uM pretreated with MG132 followed by compound addition and measured after 8 hrs by Western blotting analysis; format: cell-based
[9] = target: T1, von Hippel-Lindau disease tumor suppressor/SWI/SNF-related matrix-associated actin-dependent regulator of chromatin subfamily A member 2 (Homo sapiens); test: PROTAC activity at VHL/SMARCA2 in human A549 cells assessed as induction of SMARCA2 degradation at 1 uM pretreated with MLN4924 followed by compound addition and measured after 8 hrs by Western blotting analysis; format: cell-based
[10] = target: T1, von Hippel-Lindau disease tumor suppressor/SWI/SNF-related matrix-associated actin-dependent regulator of chromatin subfamily A member 2 (Homo sapiens); test: PROTAC activity at VHL/SMARCA2 in human A549 cells assessed as induction of SMARCA2 degradation at 1 uM pretreated with 2-(4-(3-Amino-6-(2-hydroxyphenyl)pyridazin-4-yl)piperazin-1-yl) acetic acid trifluoroacetate followed by compound addition and measured after 8 hrs by Western blotting analysis; format: cell-based
[11] = target: T1, von Hippel-Lindau disease tumor suppressor/SWI/SNF-related matrix-associated actin-dependent regulator of chromatin subfamily A member 2 (Homo sapiens); test: PROTAC activity at VHL/SMARCA2 in human A549 cells assessed as induction of SMARCA2 degradation at 1 uM pretreated with VHL-ligand followed by compound addition and measured after 8 hrs by Western blotting analysis; format: cell-based
[12] = target: T1, von Hippel-Lindau disease tumor suppressor/SWI/SNF-related matrix-associated actin-dependent regulator of chromatin subfamily A member 2 (Homo sapiens); test: PROTAC activity at VHL/SMARCA2 in human 786-0 cells harboring mutated VHL assessed as induction of SMARCA2 degradation at 0.1 to 5 uM incubated for 8 hrs by Western blotting analysis; format: cell-based; conditions: dose 0.1-5 µM
[13] = target: T2, von Hippel-Lindau disease tumor suppressor/SWI/SNF-related matrix-associated actin-dependent regulator of chromatin subfamily A member 4 (Homo sapiens); test: PROTAC activity at VHL/SMARCA4 in human 786-0 cells harboring mutated VHL assessed as induction of SMARCA4 degradation at 0.1 to 5 uM incubated for 8 hrs by Western blotting analysis; format: cell-based; conditions: dose 0.1-5 µM
[14] = target: T1, von Hippel-Lindau disease tumor suppressor/SWI/SNF-related matrix-associated actin-dependent regulator of chromatin subfamily A member 2 (Homo sapiens); test: PROTAC activity at VHL/SMARCA2 in human NCI-H1299 cells harboring shRNA mediated VHL knockdown assessed as induction of SMARCA2 degradation at 0.1 to 2 uM incubated for 8 hrs by Western blotting analysis; format: cell-based; conditions: dose 0.1-2 µM
[15] = target: T1, von Hippel-Lindau disease tumor suppressor/SWI/SNF-related matrix-associated actin-dependent regulator of chromatin subfamily A member 2 (Homo sapiens); test: PROTAC activity at VHL/SMARCA2 in human A549 cells harboring shRNA mediated VHL knockdown assessed as induction of SMARCA2 degradation at 0.1 to 2 uM incubated for 8 hrs by Western blotting analysis; format: cell-based; conditions: dose 0.1-2 µM
[16] = system: NCI-H1299; test: Cytotoxicity against human NCI-H1299 cells assessed as inhibition of cell growth incubated for 3 days by MTT assay; format: functional, cell-based; conditions: NCI-H1299, 72 h
[17] = system: A549; test: Cytotoxicity against human A549 cells assessed as inhibition of cell growth incubated for 3 days by MTT assay; format: functional, cell-based; conditions: A549, 72 h
[18] = system: A549; test: Inhibition of cell migration in human A549 cells at 10 uM incubated for 36 hrs by scratch wound healing based fluorescent microscopic analysis; format: functional
[19] = system: A549; test: Inhibition of colony formation in human A549 cells assessed as reduction in colony size at 0.8 to 20 uM incubated for 13 days by crystal violet staining based analysis; format: functional, cell-based; conditions: dose 0.8-20 µM, time 13.0 day
[20] = system: A549; test: Inhibition of colony formation in human A549 cells assessed as reduction in colony number at 0.8 to 20 uM incubated for 13 days by crystal violet staining based analysis; format: functional, cell-based; conditions: dose 0.8-20 µM, time 13.0 day
[21] = system: HuLEC-5a; test: Inhibition of colony formation in human HuLEC-5a cells assessed as reduction in colony size at 0.8 to 20 uM incubated for 13 days by crystal violet staining based analysis; format: functional, cell-based; conditions: dose 0.8-20 µM, time 13.0 day
[22] = system: HuLEC-5a; test: Inhibition of colony formation in human HuLEC-5a cells assessed as reduction in colony number at 0.8 to 20 uM incubated for 13 days by crystal violet staining based analysis; format: functional, cell-based; conditions: dose 0.8-20 µM, time 13.0 day
[23] = system: A549; test: Antitumor activity against human A549 cells xenografted in BALB/c mouse assessed as reduction in tumor size at 80 mg/kg,IT(Intratumoral) administrated every four days for 16 days; format: functional, organism-based; conditions: time 16.0 day
[24] = system: A549; test: Antitumor activity against human A549 cells xenografted in BALB/c mouse assessed as reduction in tumor volume at 80 mg/kg,IT(Intratumoral) administrated every four days for 16 days; format: functional, organism-based; conditions: time 16.0 day
[25] = system: A549; test: Antitumor activity against human A549 cells xenografted in BALB/c mouse assessed as reduction in tumor weight at 80 mg/kg,IT(Intratumoral) administrated every four days for 16 days; format: functional, organism-based; conditions: time 16.0 day
[26] = Toxicity in BALB/c mouse xenografted with human A549 cells assessed as change in body weight at 80 mg/kg,IT(Intratumoral) administrated every four days for 16 days; format: organism-based; conditions: in vivo, other, 384 h, time 16 day
[27] = system: A549; test: Antitumor activity against human A549 cells xenografted in BALB/c mouse assessed as downregulation of SMARCA2 expression at 80 mg/kg,IT(Intratumoral) administrated every four days for 16 days by Western blotting analysis; format: functional, organism-based; conditions: time 16.0 day
[28] = system: A549; test: Antitumor activity against human A549 cells xenografted in BALB/c mouse assessed as upregulation of cleaved caspase-3 expression at 80 mg/kg,IT(Intratumoral) administrated every four days for 16 days by Western blotting analysis; format: functional, organism-based; conditions: time 16.0 day
[29] = Toxicity in BALB/c mouse xenografted with human A549 cells assessed as morphological change in heart at 80 mg/kg,IT(Intratumoral) administrated every four days for 16 days by hematoxylin and eosin staining based microscopic analysis; format: organism-based; conditions: in vivo, other, 384 h, time 16 day
[30] = Toxicity in BALB/c mouse xenografted with human A549 cells assessed as morphological change in liver at 80 mg/kg,IT(Intratumoral) administrated every four days for 16 days by hematoxylin and eosin staining based microscopic analysis; format: organism-based; conditions: in vivo, other, 384 h, time 16 day
[31] = Toxicity in BALB/c mouse xenografted with human A549 cells assessed as morphological change in spleen at 80 mg/kg,IT(Intratumoral) administrated every four days for 16 days by hematoxylin and eosin staining based microscopic analysis; format: organism-based; conditions: in vivo, other, 384 h, time 16 day
[32] = Toxicity in BALB/c mouse xenografted with human A549 cells assessed as morphological change in lung at 80 mg/kg,IT(Intratumoral) administrated every four days for 16 days by hematoxylin and eosin staining based microscopic analysis; format: organism-based; conditions: in vivo, other, 384 h, time 16 day
[33] = Toxicity in BALB/c mouse xenografted with human A549 cells assessed as morphological change in kidney at 80 mg/kg,IT(Intratumoral) administrated every four days for 16 days by hematoxylin and eosin staining based microscopic analysis; format: organism-based; conditions: in vivo, other, 384 h, time 16 day
[34] = system: A549; test: Antitumor activity against human A549 cells xenografted in BALB/c mouse assessed as downregulation of SMARCA2 expression at 80 mg/kg,IT(Intratumoral) administrated every four days for 16 days by immunohistochemistry analysis; format: functional, organism-based; conditions: time 16.0 day
[35] = system: A549; test: Antitumor activity against human A549 cells xenografted in BALB/c mouse assessed as upregulation of cleaved caspase-3 expression at 80 mg/kg,IT(Intratumoral) administrated every four days for 16 days by immunohistochemistry analysis; format: functional, organism-based; conditions: time 16.0 day
[36] = system: A549; test: Antitumor activity against human A549 cells xenografted in BALB/c mouse assessed as upregulation of Ki67 expression at 80 mg/kg,IT(Intratumoral) administrated every four days for 16 days by immunohistochemistry analysis; format: functional, organism-based; conditions: time 16.0 day
[37] = system: A549; test: Antitumor activity against human A549 cells xenografted in BALB/c mouse assessed as upregulation of gamma-H2AX expression at 80 mg/kg,IT(Intratumoral) administrated every four days for 16 days by immunohistochemistry analysis; format: functional, organism-based; conditions: time 16.0 day
[38] = Stability of the compound in cell culture medium containing 10% fetal bovine serum at 50 uM incubated for 72 hrs by HPLC analysis; format: physicochemical, cell-free; conditions: cattle
[39] = Stability in mouse plasma at 10 uM incubated for 24 hrs by HPLC analysis; format: ADME, cell-free

T1 sequence (P40337 whole entry, looked up): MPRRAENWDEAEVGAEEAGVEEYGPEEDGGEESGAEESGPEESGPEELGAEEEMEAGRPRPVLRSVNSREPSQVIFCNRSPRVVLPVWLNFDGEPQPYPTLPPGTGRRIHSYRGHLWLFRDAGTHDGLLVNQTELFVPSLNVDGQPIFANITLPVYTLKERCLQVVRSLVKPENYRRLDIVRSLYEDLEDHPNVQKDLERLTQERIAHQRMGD
T1 sequence (P51531 whole entry, looked up): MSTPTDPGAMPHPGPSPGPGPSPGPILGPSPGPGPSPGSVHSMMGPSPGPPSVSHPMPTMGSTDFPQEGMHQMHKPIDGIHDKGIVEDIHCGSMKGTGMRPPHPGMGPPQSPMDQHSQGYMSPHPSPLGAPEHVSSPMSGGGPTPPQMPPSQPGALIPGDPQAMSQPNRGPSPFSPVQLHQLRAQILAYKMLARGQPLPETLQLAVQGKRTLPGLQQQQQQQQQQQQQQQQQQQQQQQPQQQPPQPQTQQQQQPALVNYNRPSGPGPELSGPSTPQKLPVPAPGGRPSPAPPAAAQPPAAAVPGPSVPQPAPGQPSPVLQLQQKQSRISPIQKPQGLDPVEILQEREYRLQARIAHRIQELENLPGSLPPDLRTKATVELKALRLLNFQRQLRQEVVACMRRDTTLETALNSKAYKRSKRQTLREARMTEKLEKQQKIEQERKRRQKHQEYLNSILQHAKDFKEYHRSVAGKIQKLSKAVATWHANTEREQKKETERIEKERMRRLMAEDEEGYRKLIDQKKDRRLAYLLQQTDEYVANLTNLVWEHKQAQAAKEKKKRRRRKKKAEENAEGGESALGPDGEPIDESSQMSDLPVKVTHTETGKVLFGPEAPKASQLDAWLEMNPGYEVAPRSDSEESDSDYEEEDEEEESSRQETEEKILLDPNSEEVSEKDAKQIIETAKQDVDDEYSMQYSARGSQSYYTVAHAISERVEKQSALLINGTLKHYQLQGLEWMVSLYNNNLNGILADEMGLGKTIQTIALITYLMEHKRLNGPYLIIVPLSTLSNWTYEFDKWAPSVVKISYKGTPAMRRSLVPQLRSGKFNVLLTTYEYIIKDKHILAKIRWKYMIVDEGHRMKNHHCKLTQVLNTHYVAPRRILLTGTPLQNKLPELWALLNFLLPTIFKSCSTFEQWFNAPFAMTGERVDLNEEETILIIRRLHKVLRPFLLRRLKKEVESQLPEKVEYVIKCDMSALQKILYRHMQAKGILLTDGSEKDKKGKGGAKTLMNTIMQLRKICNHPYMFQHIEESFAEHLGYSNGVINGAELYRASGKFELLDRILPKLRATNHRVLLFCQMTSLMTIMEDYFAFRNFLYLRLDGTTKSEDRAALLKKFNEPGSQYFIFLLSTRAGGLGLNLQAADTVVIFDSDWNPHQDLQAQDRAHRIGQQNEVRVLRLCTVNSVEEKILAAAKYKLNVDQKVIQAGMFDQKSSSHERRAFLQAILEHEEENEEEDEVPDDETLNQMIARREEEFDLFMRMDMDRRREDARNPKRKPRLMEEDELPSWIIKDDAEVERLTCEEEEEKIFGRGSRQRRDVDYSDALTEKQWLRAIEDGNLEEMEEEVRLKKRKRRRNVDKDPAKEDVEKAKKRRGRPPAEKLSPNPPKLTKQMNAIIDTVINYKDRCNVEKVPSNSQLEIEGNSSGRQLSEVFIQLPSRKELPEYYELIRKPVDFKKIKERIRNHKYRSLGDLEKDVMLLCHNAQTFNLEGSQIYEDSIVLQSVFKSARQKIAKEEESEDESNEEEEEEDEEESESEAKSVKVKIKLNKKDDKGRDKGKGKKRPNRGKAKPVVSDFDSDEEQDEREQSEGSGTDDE
T2 sequence (P40337 whole entry, looked up): as the sequence (P40337 whole entry, looked up) above
T2 sequence (P51532 whole entry, looked up): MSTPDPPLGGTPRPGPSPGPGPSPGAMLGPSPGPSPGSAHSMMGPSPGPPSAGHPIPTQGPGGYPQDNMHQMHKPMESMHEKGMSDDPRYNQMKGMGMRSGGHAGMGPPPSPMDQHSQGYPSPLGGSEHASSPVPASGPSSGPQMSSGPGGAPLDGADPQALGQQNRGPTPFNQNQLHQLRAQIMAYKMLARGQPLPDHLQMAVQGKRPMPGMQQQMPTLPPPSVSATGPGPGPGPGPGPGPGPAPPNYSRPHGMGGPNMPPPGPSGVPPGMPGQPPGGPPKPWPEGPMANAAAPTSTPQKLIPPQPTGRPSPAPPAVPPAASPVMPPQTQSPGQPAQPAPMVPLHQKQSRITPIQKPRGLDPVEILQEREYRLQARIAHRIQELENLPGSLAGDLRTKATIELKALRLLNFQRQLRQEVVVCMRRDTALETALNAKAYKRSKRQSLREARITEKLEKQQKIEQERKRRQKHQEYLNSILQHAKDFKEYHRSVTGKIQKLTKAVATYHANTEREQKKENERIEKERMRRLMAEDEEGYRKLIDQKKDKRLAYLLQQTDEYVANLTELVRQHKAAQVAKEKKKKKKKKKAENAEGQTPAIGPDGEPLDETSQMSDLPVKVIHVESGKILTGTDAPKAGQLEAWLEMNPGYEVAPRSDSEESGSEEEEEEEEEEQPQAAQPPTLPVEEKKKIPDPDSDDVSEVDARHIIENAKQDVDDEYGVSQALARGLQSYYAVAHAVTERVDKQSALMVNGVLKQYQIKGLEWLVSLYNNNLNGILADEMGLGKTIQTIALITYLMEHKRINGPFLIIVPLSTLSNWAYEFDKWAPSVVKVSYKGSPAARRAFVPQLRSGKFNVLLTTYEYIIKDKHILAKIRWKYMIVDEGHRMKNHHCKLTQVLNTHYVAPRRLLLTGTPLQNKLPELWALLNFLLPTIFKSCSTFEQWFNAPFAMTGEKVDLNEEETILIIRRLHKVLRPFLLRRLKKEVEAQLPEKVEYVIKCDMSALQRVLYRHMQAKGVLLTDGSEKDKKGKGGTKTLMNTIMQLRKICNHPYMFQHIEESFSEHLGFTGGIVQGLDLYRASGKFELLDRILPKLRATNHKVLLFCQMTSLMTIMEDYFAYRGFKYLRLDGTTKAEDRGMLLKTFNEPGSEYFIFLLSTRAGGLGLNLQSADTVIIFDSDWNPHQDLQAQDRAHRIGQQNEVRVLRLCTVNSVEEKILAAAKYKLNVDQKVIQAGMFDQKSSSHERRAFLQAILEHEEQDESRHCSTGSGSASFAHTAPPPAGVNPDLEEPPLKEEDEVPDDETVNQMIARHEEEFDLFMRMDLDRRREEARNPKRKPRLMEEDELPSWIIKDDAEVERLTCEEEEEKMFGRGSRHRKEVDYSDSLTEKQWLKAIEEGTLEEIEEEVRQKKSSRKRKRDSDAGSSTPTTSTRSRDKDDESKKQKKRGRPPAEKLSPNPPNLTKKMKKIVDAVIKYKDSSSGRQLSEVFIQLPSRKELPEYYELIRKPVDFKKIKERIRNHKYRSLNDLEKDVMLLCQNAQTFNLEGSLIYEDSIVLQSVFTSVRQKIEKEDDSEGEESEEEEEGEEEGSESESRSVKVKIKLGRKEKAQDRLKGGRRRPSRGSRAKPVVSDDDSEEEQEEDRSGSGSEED

Structure (SMILES): CCN(CCN1C(=O)C=CC1=O)c1ccc2c(C)cc(=O)oc2c1
- Activity [1]: Active

Structure (SMILES): Cc1ncsc1-c1ccc(CNC(=O)[C@@H]2C[C@@H](O)CN2C(=O)[C@@H](NC(=O)CN2CCN(c3cc(-c4ccccc4OS(=O)(=O)c4ccc([N+](=O)[O-])cc4)nnc3N)CC2)C(C)(C)C)cc1
- Activity [2]: Active
- Activity [3]: inactive
- Activity [4]: inactive
- Activity [5]: Tde
- Activity [6]: Tde
- Activity [7]: inactive
- Activity [8]: inactive
- Activity [9]: inactive
- Activity [10]: inactive
- Activity [11]: inactive
- Activity [12]: inactive
- Activity [13]: inactive
- Activity [14]: inactive
- Activity [15]: inactive
- IC50 [16]: 21.8 µM
- IC50 [17]: 9.1 µM
- inhibition [18]: Active
- inhibition [19]: Active
- inhibition [20]: Active
- inhibition [21]: inactive
- inhibition [22]: inactive
- Activity [23]: Active
- Activity [24]: Active
- Activity [25]: Active
- Activity [26]: Non-Toxic
- Activity [27]: Active
- Activity [28]: Active
- Activity [29]: Non-Toxic
- Activity [30]: Non-Toxic
- Activity [31]: Non-Toxic
- Activity [32]: Non-Toxic
- Activity [33]: Non-Toxic
- Activity [34]: Active
- Activity [35]: Active
- Activity [36]: Active
- Activity [37]: Active
- Stability [38]: Stable
- Stability [39]: Stable
